Experimental data as given in patent publication US20060069132A1, “Azolecarboxamide herbicides” (priority 2004, published 2006).

Experiments:
wild oat (AVEFA) = test: Test J Compounds 2 and 6 alone and in combination with other herbicides, foliage spray; format: in vivo, Avena fatua; design: key: 0 = no effect, 100 = complete control; details: applied alone
From the text: (§1) Colby's Equation was used to calculate the expected additive herbicidal effect of the mixtures of Compound 6 with Harmony® Extra (i.e. a 2:1 mixture by weight of thifensulfuron-methyl and tribenuron-methyl). […]
(§2) Seeds of test plants consisting of barnyardgrass (ECHCG; Echinochloa crus-galli (L.) Beauv.), blackgrass (ALOMY; Alopecurus myosuroides Huds.), Surinam grass (BRADC; Urochloa decumbens (Staph) R. D. Webster, previously named Brachiaria decumbens Stapf), cocklebur (XANST, Xanthium strumarium L.), corn (ZEAMD, Zea mays L. cv. ‘Pioneer 33G26’), large crabgrass (DIGSA, Digitaria sanguinalis (L.) Scop.), giant foxtail (SETFA, Setaria faberi Herrm.), lambsquarters (CHEAL, Chenopodium album L.), morningglory (IPOCO, Ipomoea coccinea L.), pigweed (AMARE, Amaranthus retroflexus L.), velvetleaf (ABUTH, Abutilon theophrasti Medik.) wheat (TRZAS, Triticum aestivum L. cv. ‘Recital’) and wild oat (AVEFA, Avena fatua L.) were planted in Redi-Earth® planting medium (Scotts Company, 14111 Scottslawn Road, Marysville, Ohio 43041) comprising spaghnum peat moss and vermiculite. […] Also listed in Table J are the expected effects for the mixtures calculated using Colby's Equation.

pigweed (AMARE) = test: as above; format: in vivo, Amaranthus retroflexus; design: key to AMARE Obsd.: 0 = no effect, 100 = complete control; details: for AMARE Obsd.: applied alone
From the text: Colby's Equation was used to calculate the expected additive herbicidal effect of the mixtures of Compound 6 with Harmony® Extra (i.e. a 2:1 mixture by weight of thifensulfuron-methyl and tribenuron-methyl). Colby's Equation (Colby, S. R. “Calculating Synergistic and Antagonistic Responses of Herbicide Combinations,” Weeds, 15(1), pp 20-22 (1967)) calculates the expected additive effect of herbicidal mixtures, and for two active ingredients is of the form: Pa+b=Pa+Pb−(PaPb/100) wherein • Pa+b is the percentage effect of the mixture expected from additive contribution of the individual components, • Pa is the observed percentage effect of the first active ingredient at the same use rate as in the mixture, and • Pb is the observed percentage effect of the second active ingredient at the same use rate as in the mixture.
as §2, with “vermiculite. Seeds of small-seeded species were planted about 1 cm deep; larger seeds were planted about 2.5 cm deep. Plants were grown in a greenhouse using supplemental lighting to maintain a photoperiod of about 14 hours; daytime and nighttime temperatures were about 24-30° C. and 22-25° C., respectively.” for “vermiculite.”

corn (ZEAMD) = test: as above; format: in vivo, Zea mays; design: key: percentage herbicidal effect (observed); details: applied alone
From the text: as §1, §2

pigweed = test: Test F pre-/postemergence herbicide test; format: in vivo, Amaranthus retroflexus
From the text: (§3) Seeds of plant species selected from annual blugrass (Poa annua L.), blackgrass (Alopecurus myosuroides Huds.), catchweed bedstraw (Gallium aparine L.), common chickweed (Stellaria media (L.) Vill./Cyr.), downy bromegrass (Bromus tectorum L.), green foxtail (Setaria viridis (L.) Beauv.), Italian ryegrass (Lolium multiflorum Lam.), kochia (Kochia scoparia (L.). Schrad.), lambsquarters (Chenopodium album L.), littleseed canarygrass (Phalaris minor Retz.), pigweed (Amaranthus retroflexus L.), Russian thistle (Salsola kali L. ssp. Ruthenica (Iljin) Soo), wild buckwheat (Polygonum convolvulus L.), wild mustard (Sinapis arvensis L.), wild oat (Avena fatua L.), windgrass (Apera spica-venti (L.) Beauv.), winter barley (Hordeum vulgare L.), and wheat (Triticum aestivum L.) were planted and treated preemergence with test chemicals formulated in a non-phytotoxic solvent mixture which included a surfactant.
(§4) At the same time, plants selected from these crop and weed species were treated with postemergence applications of some of the test chemicals formulated in the same manner. Plants ranged in height from 2 to 18 cm (1- to 4-leaf stage) for postemergence treatments. Treated plants and controls were maintained in a greenhouse for 12 to 14 days, after which time all species were compared to controls and visually evaluated. Plant response ratings, summarized in Table F, are based on a scale of 0 to 100 where 0 is no effect and 100 is complete control. A dash (-) response means no test result.

windgrass = test: Test F pre-/postemergence herbicide test; format: in vivo, Apera spica-venti
From the text: as §3, §4

CCn1nc(C(C)(C)C)cc1C(=O)Nc1cc(C(=O)N(C)C)ccc1F [Compound 6, N-[5-[(dimethylamino)carbonyl]-2-fluorophenyl]-3-(1,1-dimethylethyl)-1-ethyl-1H-pyrazole-5-carboxamide]
AVEFA Obsd. (wild oat (AVEFA); 62 g a.i./ha): 10 | AVEFA Obsd. (wild oat (AVEFA); 125 g a.i./ha): 25 | AMARE Obsd. (pigweed (AMARE); 62 g a.i./ha): 28 | AMARE Obsd. (pigweed (AMARE); 125 g a.i./ha): 60 | observed effect of mixture compared with additive effect expected from Colby's Equation (pigweed (AMARE); mixture with atrazine, pigweed, foliage spray, 15 days after treatment): greater than additive | ZEAMD Obsd. (corn (ZEAMD); 62 g a.i./ha): 22 | ZEAMD Obsd. (corn (ZEAMD); 125 g a.i./ha): 28

CCn1nc(C(C)(C)C)cc1C(=O)Nc1cc(C(=O)OC(C)C)c(F)cc1F [Compound 248]
Plant response rating (0-100), Pigweed (pigweed; Postemergence, 31 g ai/ha): 65 | Plant response rating (0-100), Pigweed (pigweed; Postemergence, 62 g ai/ha): 65 | Plant response rating (0-100), Pigweed (pigweed; Postemergence, 125 g ai/ha): 70 | Plant response rating (0-100), Pigweed (pigweed; Postemergence, 250 g ai/ha): 70 | Plant response rating (0-100), Pigweed (pigweed; Preemergence, 31 g ai/ha): 70 | Plant response rating (0-100), Pigweed (pigweed; Preemergence, 62 g ai/ha): 75 | Plant response rating (0-100), Pigweed (pigweed; Preemergence, 125 g ai/ha): 95 | Plant response rating (0-100), Pigweed (pigweed; Preemergence, 250 g ai/ha): 95 | Plant response rating (0-100), Windgrass (windgrass; Postemergence, 31 g ai/ha): 50 | Plant response rating (0-100), Windgrass (windgrass; Postemergence, 62 g ai/ha): 50 | Plant response rating (0-100), Windgrass (windgrass; Postemergence, 125 g ai/ha): 50 | Plant response rating (0-100), Windgrass (windgrass; Postemergence, 250 g ai/ha): 50 | Plant response rating (0-100), Windgrass (windgrass; Preemergence, 31 g ai/ha): 70 | Plant response rating (0-100), Windgrass (windgrass; Preemergence, 62 g ai/ha): 70 | Plant response rating (0-100), Windgrass (windgrass; Preemergence, 125 g ai/ha): 100 | Plant response rating (0-100), Windgrass (windgrass; Preemergence, 250 g ai/ha): 100
